The results in this text go back to patent US20260035382A1, “COMPOUNDS AS SUMO ACTIVATING ENZYME INHIBITORS” (WIGEN BIOMEDICINE TECHNOLOGY (SHANGHAI) CO., LTD., priority 2022, published 2026).

Chain of SAE (Q9UBT2 whole entry): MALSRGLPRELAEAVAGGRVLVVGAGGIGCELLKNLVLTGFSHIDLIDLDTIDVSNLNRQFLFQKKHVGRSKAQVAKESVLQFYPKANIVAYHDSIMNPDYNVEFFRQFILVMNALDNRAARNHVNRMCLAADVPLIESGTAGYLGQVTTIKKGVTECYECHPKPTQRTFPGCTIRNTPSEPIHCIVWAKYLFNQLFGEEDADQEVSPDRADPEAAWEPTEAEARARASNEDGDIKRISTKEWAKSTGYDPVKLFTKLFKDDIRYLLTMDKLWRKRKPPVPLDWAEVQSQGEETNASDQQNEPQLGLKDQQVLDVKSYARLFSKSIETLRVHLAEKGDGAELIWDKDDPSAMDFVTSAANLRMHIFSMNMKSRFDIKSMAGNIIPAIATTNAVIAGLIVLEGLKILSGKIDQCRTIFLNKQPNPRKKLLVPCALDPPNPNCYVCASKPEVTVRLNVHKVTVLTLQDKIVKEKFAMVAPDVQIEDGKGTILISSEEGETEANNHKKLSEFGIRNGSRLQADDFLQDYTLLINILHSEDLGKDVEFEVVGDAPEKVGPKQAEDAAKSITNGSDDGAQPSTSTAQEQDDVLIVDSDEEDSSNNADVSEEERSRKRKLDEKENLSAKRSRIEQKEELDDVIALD
Chain of SAE (Q9UBE0 whole entry partner): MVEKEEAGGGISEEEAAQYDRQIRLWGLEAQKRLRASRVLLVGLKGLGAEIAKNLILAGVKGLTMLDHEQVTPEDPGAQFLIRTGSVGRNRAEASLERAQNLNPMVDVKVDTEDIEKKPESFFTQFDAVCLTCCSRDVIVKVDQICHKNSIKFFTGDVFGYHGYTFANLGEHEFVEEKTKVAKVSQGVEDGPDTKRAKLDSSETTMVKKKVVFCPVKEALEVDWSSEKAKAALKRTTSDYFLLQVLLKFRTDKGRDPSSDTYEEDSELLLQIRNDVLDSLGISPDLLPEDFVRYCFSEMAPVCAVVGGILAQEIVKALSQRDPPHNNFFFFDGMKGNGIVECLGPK

In one experiment the target is SAE (Homo sapiens (Human), UniProt Q9UBT2). The experiment can be described thus: In vitro inhibitory activity assay against SAE (SUMO-2/3 immunofluorescence in HCT116 cells). In kind it is cell-based. The following applies: 6 h incubation, class symbols, read-out: SUMO IF IC50. As to the method:
HCT116 cells were seeded into a 96-well black transparent bottom plate at about 20000/well with 90 μL per well. The cells were incubated at 37° C. overnight for 24 h. The test compounds were 10-fold diluted to give a final concentration, and 10 μL of the diluted compounds was added to each well of the cell culture plate. The mixture was incubated at 37° C. for 6 h. The cells were then washed gently, the culture medium was discarded, and the cells were washed once with 200 μL of 0.1% o PBST. 50 μL of 4% PFA was added to each well, and the cells were immobilized at room temperature for 20 min, and then washed with PBS 2-3 times. 50 μL of 0.2% o Triton X-100 was added to each well, and the cells were left to stand at room temperature for 15 min and washed with 0.1% PBST 3 times. 100 uL of 3% BSA (0.6 g BSA+20 mL PBS) was added to each well, and the mixture was blocked at 37° C. for 30 min. After the blocking was completed, the liquid was removed and a primary antibody (SUMO-2/3 (181H8) Rabbit mAb, 1:400 dilution) was prepared with […]. 30 μL of the diluted primary antibody was added to each well, and the mixture was incubated at 4° C. overnight. The cells were washed 3 times with 200 μL of 0.1% o PBST. A FITC secondary antibody (Fluorescein (FITC)-conjugated Affinipure Goat Anti-Rabbit IgG (H+L), 1:300 dilution) was further prepared with 1% o BSA, and 40 μL of the diluted secondary antibody was added to each well. The mixture was incubated at room temperature in the dark for 2 h, and then the cells were washed 4 times with 0.1% PBST. The fluorescence signal of the sample was detected and compared to the DMSO group, and the inhibition rate and IC50 were calculated.
The term IC50 denotes the midpoint of a concentration-inhibition curve. In the case of `N#Cc1ccc2c(c1)[C@]1(CCc3sc(C(=O)c4cncnc4N[C@@H]4C[C@H](COS(N)(=O)=O)[C@@H](O)C4)cc31)NCC2` [Compound 53], the IC50 was greater than 0.2 µM.

Regarding `N#Cc1ccc2c(c1)[C@@]1(CCc3sc(C(=O)c4cncnc4N[C@@H]4C[C@H](COS(N)(=O)=O)[C@@H](O)C4)cc31)NCC2` [Compound 54], the concentration for half-maximal inhibition (IC50) lay in the range of 0.05 to 0.2 µM.

Consider `NS(=O)(=O)OC[C@H]1C[C@@H](Nc2ncncc2C(=O)c2cc3c(s2)OCC32NCCc3ccccc32)C[C@@H]1O` (stereo partly drawn) [Compound 55], for which the IC50 is greater than 0.2 µM. Consider `NS(=O)(=O)OC[C@H]1C[C@@H](Nc2ncncc2C(=O)c2cc3c(s2)OC[C@@]32NCCc3ccccc32)C[C@@H]1O` [Compound 56], for which the IC50 was greater than 0.2 µM. Still for that read-out and setting: the result for `NS(=O)(=O)OC[C@H]1C[C@@H](Nc2ncncc2C(=O)c2cc3c(s2)OC[C@]32NCCc3ccccc32)C[C@@H]1O` [Compound 57] reads 0.05 to 0.2 µM; that for `NS(=O)(=O)OC[C@H]1C[C@@H](Nc2ncncc2C(=O)c2cc3c(s2)OCC32NCCc3ccc(F)cc32)C[C@@H]1O` (stereo partly drawn) [Compound 58], greater than 0.2 µM. On to `NS(=O)(=O)OC[C@H]1C[C@@H](Nc2ncncc2C(=O)c2cc3c(s2)OC[C@@]32NCCc3ccc(F)cc32)C[C@@H]1O` [Compound 59], for which the IC50 was greater than 0.2 µM.

As for `NS(=O)(=O)OC[C@H]1C[C@@H](Nc2ncncc2C(=O)c2cc3c(s2)OC[C@]32NCCc3ccc(F)cc32)C[C@@H]1O` [Compound 60], the concentration for half-maximal inhibition (IC50) was 0.05 to 0.2 µM. With `NS(=O)(=O)OC[C@H]1C[C@@H](Nc2ncncc2C(=O)c2cc3c(s2)OCC32NCCc3ccc(Cl)cc32)C[C@@H]1O` (stereo partly drawn) [Compound 61], the half-inhibitory concentration (IC50) is 0.05 to 0.2 µM.

For `NS(=O)(=O)OC[C@H]1C[C@@H](Nc2ncncc2C(=O)c2cc3c(s2)OC[C@@]32NCCc3ccc(Cl)cc32)C[C@@H]1O` [Compound 62], the IC50 is greater than 0.2 µM.

For the molecule `NS(=O)(=O)OC[C@H]1C[C@@H](Nc2ncncc2C(=O)c2cc3c(s2)OC[C@]32NCCc3ccc(Cl)cc32)C[C@@H]1O` [Compound 63], the half-inhibitory concentration (IC50) is 0.05 to 0.2 µM.

`Cc1ccc2c(c1)C1(CCc3sc(C(=O)c4cncnc4N[C@@H]4C[C@H](COS(N)(=O)=O)[C@@H](O)C4)cc31)NCC2` (stereo partly drawn) [Compound 64]: the IC50 lay in the range of 0.05 to 0.2 µM.

Turning to `NS(=O)(=O)OC[C@H]1C[C@@H](Nc2ncncc2C(=O)c2cc3c(s2)CCC32NCCc3ccc(C4CC4)cc32)C[C@@H]1O` (stereo partly drawn) [Compound 65], the IC50 was in the range of 0.05 to 0.2 µM. Take `COc1ccc2c(c1)C1(CCc3sc(C(=O)c4cncnc4N[C@@H]4C[C@H](COS(N)(=O)=O)[C@@H](O)C4)cc31)NCC2` (stereo partly drawn) [Compound 66]: the IC50 was greater than 0.2 µM. As to `NS(=O)(=O)OC[C@H]1C[C@@H](Nc2ncncc2C(=O)c2cc3c(s2)CCC32NCCc3ccc(C(F)(F)F)cc32)C[C@@H]1O` (stereo partly drawn) [Compound 67], the IC50 lay within 0.05 to 0.2 µM. Take `NS(=O)(=O)OC[C@H]1C[C@@H](Nc2ncncc2C(=O)c2cc3c(s2)CCC32NCCc3cc(F)c(F)cc32)C[C@@H]1O` (stereo partly drawn) [Compound 68]: the IC50 is 0.05 to 0.2 µM. As for `NS(=O)(=O)OC[C@H]1C[C@@H](Nc2ncncc2C(=O)c2cc3c(s2)CCC32NCCc3cc(F)c(Cl)cc32)C[C@@H]1O` (stereo partly drawn) [Compound 69], the IC50 is no more than 0.05 µM. For `NS(=O)(=O)OC[C@H]1C[C@@H](Nc2ncncc2C(=O)c2cc3c(s2)CCC32NCCc3cc(Cl)c(Cl)cc32)C[C@@H]1O` (stereo partly drawn) [Compound 70], the IC50 is 0.05 to 0.2 µM.

In the case of `Cc1cc2c(cc1Cl)C1(CCc3sc(C(=O)c4cncnc4N[C@@H]4C[C@H](COS(N)(=O)=O)[C@@H](O)C4)cc31)NCC2` (stereo partly drawn) [Compound 71], the IC50 lay in the range of 0.05 to 0.2 µM. As for `N#Cc1cc2c(cc1Cl)C1(CCc3sc(C(=O)c4cncnc4N[C@@H]4C[C@H](COS(N)(=O)=O)[C@@H](O)C4)cc31)NCC2` (stereo partly drawn) [Compound 72], the IC50 was in the range of 0.05 to 0.2 µM. For `COc1cc2c(cc1Cl)C1(CCc3sc(C(=O)c4cncnc4N[C@@H]4C[C@H](COS(N)(=O)=O)[C@@H](O)C4)cc31)NCC2` (stereo partly drawn) [Compound 73], the IC50 is 0.05 to 0.2 µM. On the same count and under the same terms, the result for `NS(=O)(=O)OC[C@H]1C[C@@H](Nc2ncncc2C(=O)c2cc3c(s2)CCC32NCCc3cc(F)c(Cl)c(F)c32)C[C@@H]1O` (stereo partly drawn) [Compound 74] reads 0.05 to 0.2 µM. Regarding `NS(=O)(=O)OC[C@H]1C[C@@H](Nc2ncncc2C(=O)c2cc3c(s2)CCC32NCCc3cc(Cl)c(F)cc32)C[C@@H]1O` (stereo partly drawn) [Compound 75], the IC50 is 0.05 to 0.2 µM. The same measure, in the same setting: the result for `NS(=O)(=O)OC[C@H]1C[C@@H](Nc2ncncc2C(=O)c2cc3c(s2)CCC32NCCc3ccncc32)C[C@@H]1O` (stereo partly drawn) [Compound 76] reads 0.05 to 0.2 µM; that for `NS(=O)(=O)OC[C@H]1C[C@@H](Nc2ncncc2C(=O)c2cc3c(s2)CCC32NCCc3cc(Cl)ncc32)C[C@@H]1O` (stereo partly drawn) [Compound 77], 0.05 to 0.2 µM. In the case of `NS(=O)(=O)OC[C@H]1C[C@@H](Nc2ncncc2C(=O)c2cc3c(s2)C=CC32NCCc3ccc(Cl)cc32)C[C@@H]1O` (stereo partly drawn) [Compound 78], the half-maximal inhibitory concentration (IC50) was no more than 0.05 µM. The same measure, in the same setting: the result for `NS(=O)(=O)OC[C@H]1C[C@@H](Nc2ncncc2C(=O)c2cc3c(s2)C=CC32NCCc3ccc(F)cc32)C[C@@H]1O` (stereo partly drawn) [Compound 79] reads 0.05 to 0.2 µM. In the case of `NS(=O)(=O)OC[C@H]1C[C@@H](Nc2ncncc2C(=O)c2cc3c(s2)COC32NCCc3ccc(Cl)cc32)C[C@@H]1O` (stereo partly drawn) [Compound 80], the IC50 lay in the range of 0.05 to 0.2 µM.

In the case of `NS(=O)(=O)OC[C@H]1C[C@@H](Nc2ncncc2C(=O)c2cc3c(s2)CCC32NCC3(CC3)c3ccc(Cl)cc32)C[C@@H]1O` (stereo partly drawn) [Compound 81], the IC50 fell in the range of 0.05 to 0.2 µM. On the same count and under the same terms, the value for `NS(=O)(=O)OC[C@H]1C[C@@H](Nc2ncncc2C(=O)c2cc3c(s2)CCC32NC3(CC3)Cc3ccc(Cl)cc32)C[C@@H]1O` (stereo partly drawn) [Compound 82] was 0.05 to 0.2 µM. Turning to `NS(=O)(=O)OC[C@H]1C[C@@H](Nc2ncncc2C(=O)c2cc3c(s2)CCC32NCC(=O)c3ccc(Cl)cc32)C[C@@H]1O` (stereo partly drawn) [Compound 83], the IC50 is 0.05 to 0.2 µM. On to `NS(=O)(=O)OC[C@H]1C[C@@H](Nc2ncncc2C(=O)c2cc3c(s2)CCC32OCCc3ccc(Cl)cc32)C[C@@H]1O` (stereo partly drawn) [Compound 84], for which the half-maximal inhibitory concentration (IC50) was no more than 0.05 µM. Regarding `NS(=O)(=O)OC[C@H]1C[C@@H](Nc2ncncc2C(=O)c2cc3c(s2)CSCC32NCCc3ccccc32)C[C@@H]1O` (stereo partly drawn) [Compound 85], the IC50 is greater than 0.2 µM. For `NS(=O)(=O)OC[C@H]1C[C@@H](Nc2ncncc2C(=O)c2cc3c(s2)CSC[C@@]32NCCc3ccccc32)C[C@@H]1O` [Compound 86], the IC50 was greater than 0.2 µM.

Consider `NS(=O)(=O)OC[C@H]1C[C@@H](Nc2ncncc2C(=O)c2cc3c(s2)CSC[C@]32NCCc3ccccc32)C[C@@H]1O` [Compound 87], for which the IC50 lay within 0.05 to 0.2 µM. Take `NS(=O)(=O)OC[C@H]1C[C@@H](Nc2ncncc2C(=O)c2cc3c(s2)CSCC32NCCc3ccc(F)cc32)C[C@@H]1O` (stereo partly drawn) [Compound 88]: the IC50 is no more than 0.05 µM.

Turning to `NS(=O)(=O)OC[C@H]1C[C@@H](Nc2ncncc2C(=O)c2cc3c(s2)CSC[C@@]32NCCc3ccc(F)cc32)C[C@@H]1O` [Compound 89], the IC50 was greater than 0.2 µM. Regarding `NS(=O)(=O)OC[C@H]1C[C@@H](Nc2ncncc2C(=O)c2cc3c(s2)CSC[C@]32NCCc3ccc(F)cc32)C[C@@H]1O` [Compound 90], the IC50 is no more than 0.05 µM.

Consider `NS(=O)(=O)OC[C@H]1C[C@@H](Nc2ncncc2C(=O)c2cc3c(s2)CSCC32NCCc3ccc(Cl)cc32)C[C@@H]1O` (stereo partly drawn) [Compound 91], for which the IC50 is no more than 0.05 µM. Consider `NS(=O)(=O)OC[C@H]1C[C@@H](Nc2ncncc2C(=O)c2cc3c(s2)COCC32NCCc3ccc(Cl)c(Cl)c32)C[C@@H]1O` (stereo partly drawn) [Compound 94], for which the IC50 lay in the range of 0.05 to 0.2 µM. Regarding `NS(=O)(=O)OC[C@H]1C[C@@H](Nc2ncncc2C(=O)c2cc3c(s2)COC[C@@]32NCCc3ccc(Cl)c(Cl)c32)C[C@@H]1O` [Compound 95], the IC50 is greater than 0.2 µM. Take `NS(=O)(=O)OC[C@H]1C[C@@H](Nc2ncncc2C(=O)c2cc3c(s2)COC[C@]32NCCc3ccc(Cl)c(Cl)c32)C[C@@H]1O` [Compound 96]: the IC50 is 0.05 to 0.2 µM.

With `NS(=O)(=O)OC[C@H]1C[C@@H](Nc2ncncc2C(=O)c2cc3c(s2)COCC32NCCc3cc(Cl)c(Cl)cc32)C[C@@H]1O` (stereo partly drawn) [Compound 97], the half-inhibitory concentration (IC50) fell in the range of 0.05 to 0.2 µM. Still for that read-out and setting: the result for `NS(=O)(=O)OC[C@H]1C[C@@H](Nc2ncncc2C(=O)c2cc3c(s2)COC[C@@]32NCCc3cc(Cl)c(Cl)cc32)C[C@@H]1O` [Compound 98] reads greater than 0.2 µM.

On to `NS(=O)(=O)OC[C@H]1C[C@@H](Nc2ncncc2C(=O)c2cc3c(s2)COC[C@]32NCCc3cc(Cl)c(Cl)cc32)C[C@@H]1O` [Compound 99], for which the IC50 was 0.05 to 0.2 µM. On to `NS(=O)(=O)OC[C@H]1C[C@@H](Nc2ncncc2C(=O)c2cc3c(s2)COCC32NCCc3c(Cl)cc(Cl)cc32)C[C@@H]1O` (stereo partly drawn) [Compound 100], for which the IC50 was 0.05 to 0.2 µM.

Staying with this experiment, now noted: 6 h incubation, numeric values, read-out: SUMO IF IC50.
On to `NS(=O)(=O)OC[C@H]1C[C@@H](Nc2ncncc2C(=O)c2cc3c(s2)CSC[C@@]32NCCc3ccc(Cl)cc32)C[C@@H]1O` [Compound 92], for which the IC50 was greater than 1 µM. Turning to `NS(=O)(=O)OC[C@H]1C[C@@H](Nc2ncncc2C(=O)c2cc3c(s2)CSC[C@]32NCCc3ccc(Cl)cc32)C[C@@H]1O` [Compound 93], the 50% inhibitory concentration (IC50) came to 0.0289 µM.
